According to patent publication US4239664A, “Anti-thrombogenic PVP-heparin polymer” (Research Corporation, priority 1978, dated 1980):

Key:
[1] = test system: anticoagulant activity; experiment: Biological (anticoagulant) activity of heparin and PVP-heparins; type: biochemical; details: Table I; heparin 100
[2] = in vivo; cited from earlier work

Solubility in Water: 70 g/100 ml
Substance: Heparin
% Biological Activity [1]: 100%
dose dependence of half-life in man [2]: does not increase
half-life of heparin in man [2]: 1 - 11/2
